Data published in article PMC3591457, “Biodistribution and Elimination Study of Fluorine-18 Labeled N^ε-Carboxymethyl-Lysine following Intragastric and Intravenous Administration” (PLoS ONE, 2013).

Experiments:
[1] = microPET imaging after intravenous administration; type: in vivo, ICR mice; conditions: after intravenous injection
Procedure: After adjusting the animal board position, 0.15 mL of an ^18F-CML solution was administered intravenously via the tail vein. The solution of ^18F-CML was prepared just prior to the intravenous administration. The dose of ^18F-CML was adjusted to approximately 80 µCi per mouse (n = 4), and the pH of the solution was adjusted to 7.4. Here, the specific activity corresponded to 3 MBq/nmol. Dynamic PET images were acquired continuously for 2 hours.
Dynamic PET studies were performed using a dedicated microPET scanner for small animals. For imaging studies, the animals were under isoflurane anesthesia and then positioned and immobilized supine with their medial axis parallel to the axial axis of the scanner with the thorax and abdominal region (organs of interest: heart, liver, and kidneys) in the center of the field of view.
Approximately 5 min was needed to set the position of the animals after intragastric or intravenous administration of the drug solution containing ^18F-CML. Then, the emission data were acquired for 120 min. An attenuation map was created for each mouse by intravenously administering the residual ^18F-CML after acquisition of the emission data. The acquired data were sorted into dynamic sinograms. […] The quantitative analyses of the hepatic and renal distributions of ^18F-CML were performed using ASIPro installed in the PET system.

[2] = test system: HepG2 cells; assay: Cell uptake of ^18F-CML and native CML in HepG2 cells; type: cell-based; conditions: n=3, P<0.01, blocking with non-radioactive CML
Procedure: (§1) To compare the different bioactivities of CML and ^18F-CML, two cell lines were evaluated for their capacity to take up native CML and the fluorobenzoylated derivative ^18F-CML. RAW264.7 macrophages and HepG2 liver cells were cultured in DMEM/LOWGLUCOSE, supplemented with 10% fetal bovine serum (FBS), 4.0 mmol/L L-glutamine, 110 mg/L sodium pyruvate, 100 U/mL penicillin, and 100 mg/L streptomycin at 37°C and 5% CO2.
(§2) For ^18F-CML cell uptake studies, RAW264.7 cells and HepG2 cells were seeded into 24-well plates at a density of 4×10^5 cells per well. Radio-tracer ^18F-CML (0.5 µCi/well, 3 µmol/mL) was incubated in a 37°C water bath for 15, 30, 60, and 120 min. At each time point the cells were washed 3 times with phosphate-buffered saline (PBS). The supernatant, washing-up liquid (unbound activity) and the pellet (cell-bound activity) were transferred to new tubes. Triplicates of the counting tubes containing supernatant and cell pellet were counted individually using a gamma counter for 1 min. For the blocking experiment, the uptake was carried out in the presence of the non-radioactive CML(10 µmol/mL) and processed similarly as described above. The uptake (%) of radio-tracer into the cell was determined using a gamma counter according to the following equation: [drawing 1]
(§3) For CML cell uptake ratio studies, unaltered CML (10 µmol/mL) was added to RAW264.7 and HepG2 cell pellets individually. The total proteins of each cell line were initially extracted from the lysates of 4×10^5 cells. […] The supernatants were purified and detected usingby the method described by Drusch et al., which uses an RP-HPLC method with an ortho-phthaldialdehyde (OPA)-derivatisation and fluorescence detection suited for automation. The HPLC analysis method used a 250 mm×4.6 mm C18 column (GROM-SIL 100 ODS-0 AB, Herrenberg, Germany) and detected the fluorescence excitation at 340 nm and emission at 455 nm. The peak identification of CML was confirmed by the retention time and standard addition and was quantified using an external standard. The amount of CML was calculated and expressed as a percentage.

[3] = test system: RAW264.7 cells; assay: Cell uptake of ^18F-CML and native CML in RAW264.7 cells; type: cell-based; conditions: n=3, P<0.01, blocking with non-radioactive CML
Procedure: as §1, §2, §3

[4] = Biodistribution after intragastric administration; type: in vivo, ICR mice; conditions: for Uptake in bladder, percentage of injected dose per whole tissue / Uptake in brain, percentage of injected dose per whole tissue / Uptake in heart, percentage of injected dose per whole tissue / Uptake in intestines, percentage of injected dose per whole tissue / Uptake in kidneys, percentage of injected dose per whole tissue / Uptake in liver, percentage of injected dose per whole tissue / Uptake in lungs, percentage of injected dose per whole tissue / Uptake in muscles, percentage of injected dose per whole tissue / Uptake in pancreas, percentage of injected dose per whole tissue / Uptake in stomach, percentage of injected dose per whole tissue: intragastric administration, n=3, mean ± SD
Procedure: The biodistribution of ^18F-CML was studied in eighteen young male ICR mice with a weight range of 18–20 g. Nine mice were used for intravenous administration and the other nine mice were used for intragastric administration.
For intravenous administration, ^18F-CML was injected into a lateral tail vein of the animals under light ether anesthesia. The injection volume (2–3 MBq; radiochemical purity 96%) was 0.1 mL. For intragastric administration, 1.5 MBq of ^18F-labeled CML was given via gastrointestinal tract tract.
The mice were sacrificed at 5, 60, and 120 min after administration of ^18F-CML (three mice at each time point). The animals were sacrificed by heart puncture under ether anaesthesia. The tissues and organs of interest were isolated and counted in a well-type γ counter. Additionally, 200 µL of blood was taken from the carotid artery. The distributions of ^18F-CML in different tissues and organs were calculated and expressed as the percent uptake of the injection dose per whole tissue (% ID).

[5] = ^18F-CML in vivo stability in mice (radio-HPLC of plasma and urine); design: species or system ICR mice; conditions: 40 min after injection
Procedure: The in vivo stability of the ^18F-CML in mice was determined using arterial blood and urine samples. Male ICR mice (n = 3) were anaesthetised with 2% vaporized isoflurane and injected with a dose of approximately 3.7 MBq of ^18F-CML in 250 µL of normal saline via the tail vein. […] Blood samples were removed immediately and centrifuged at 12,000 rpm for 2 min at 4°C to separate the plasma. The urinary bladder was carefully excised, and the urine was collected from the bladder. The plasma (30 µL) and an aliquot of the urine sample (20 µL) was injected into an HPLC column to analyze the in vivo stability of ^18F-CML in the mice.
The HPLC analysis method was based on using trichloroacetic acid to precipitation plasma proteins, which were subsequently separated by reversed-phase column liquid chromatography using a 150 mm×4.6 mm C18 column with a mobile phase of […] acetonitrile and pure water (55%/45%) and detected based on UV absorbance at 254 nm. Radioactivity signal was detected by a radiochromatography detector (PTW, Freiburg, Germany). The ratio of unchanged ^18F-CML to total radioactivity on the HPLC chromatogram was calculated and expressed as a percentage.

- Duration of continued accumulation of radioactivity in the kidneys (PET) [1]: approximately 60 min
- Uptake in bladder, percentage of injected dose per whole tissue ([4]; 5 min): 5.20±1.68 %ID
- Uptake in brain, percentage of injected dose per whole tissue ([4]; 5 min): 1.04±0.02 %ID
- Uptake in heart, percentage of injected dose per whole tissue ([4]; 5 min): 1.05±0.25 %ID
- Uptake in intestines, percentage of injected dose per whole tissue ([4]; 5 min): 9.91±1.36 %ID
- Uptake in kidneys, percentage of injected dose per whole tissue ([4]; 5 min): 2.20±0.95 %ID
- Uptake in liver, percentage of injected dose per whole tissue ([4]; 5 min): 1.17±0.45 %ID
- Uptake in lungs, percentage of injected dose per whole tissue ([4]; 5 min): 0.35±0.19 %ID
- Uptake in muscles, percentage of injected dose per whole tissue ([4]; 5 min): 1.76±0.53 %ID
- Uptake in pancreas, percentage of injected dose per whole tissue ([4]; 5 min): 0.2±0.01 %ID
- Uptake in stomach, percentage of injected dose per whole tissue ([4]; 5 min): 76.85±7.01 %ID
- Uptake in bladder, percentage of injected dose per whole tissue ([4]; 60 min): 12.21±1.62 %ID
- Uptake in brain, percentage of injected dose per whole tissue ([4]; 60 min): 0.31±0.03 %ID
- Uptake in heart, percentage of injected dose per whole tissue ([4]; 60 min): 0.75±0.52 %ID
- Uptake in intestines, percentage of injected dose per whole tissue ([4]; 60 min): 52.29±8.71 %ID
- Uptake in kidneys, percentage of injected dose per whole tissue ([4]; 60 min): 3.31±1.91 %ID
- Uptake in liver, percentage of injected dose per whole tissue ([4]; 60 min): 1.0±0.12 %ID
- Uptake in lungs, percentage of injected dose per whole tissue ([4]; 60 min): 0.51±0.11 %ID
- Uptake in muscles, percentage of injected dose per whole tissue ([4]; 60 min): 2.16±1.82 %ID
- Uptake in pancreas, percentage of injected dose per whole tissue ([4]; 60 min): 0.32±0.02 %ID
- Uptake in stomach, percentage of injected dose per whole tissue ([4]; 60 min): 29.73±3.91 %ID
- Uptake in bladder, percentage of injected dose per whole tissue ([4]; 120 min): 29.59±3.7 %ID
- Uptake in brain, percentage of injected dose per whole tissue ([4]; 120 min): 0.02±0.01 %ID
- Uptake in heart, percentage of injected dose per whole tissue ([4]; 120 min): 0.29±0.59 %ID
- Uptake in intestines, percentage of injected dose per whole tissue ([4]; 120 min): 48.32±5.2 %ID
- Uptake in kidneys, percentage of injected dose per whole tissue ([4]; 120 min): 2.1±0.29 %ID
- Uptake in liver, percentage of injected dose per whole tissue ([4]; 120 min): 0.29±0.05 %ID
- Uptake in lungs, percentage of injected dose per whole tissue ([4]; 120 min): 0.23±0.05 %ID
- Uptake in muscles, percentage of injected dose per whole tissue ([4]; 120 min): 1.11±1.78 %ID
- Uptake in pancreas, percentage of injected dose per whole tissue ([4]; 120 min): 0.05±0.00 %ID
- Uptake in stomach, percentage of injected dose per whole tissue ([4]; 120 min): 17.87±2.1 %ID
- Accumulation of radioactivity in the gastrointestinal tract ([4]; intragastric, 60 min): approximately 82 % ID
- Fraction excreted in the urine ([4]; intragastric, 60 min): 12 % ID
- Blood uptake ([4]; intragastric, 120 min, percentage of wet tissue): 0.95±0.09 % ID
- Metabolic products in the urine (radio HPLC) [5]: No metabolic products were observed
SMILES: O=C(O)CNCCCCC(NC(=O)c1ccc([18F])cc1)C(=O)O (stereo not shown) [^18F-CML]
- Uptake of radioactivity in untreated cells relative to unlabelled CML-treated (blocked) cells [2]: 1.6 fold
- Uptake of radioactivity in untreated cells relative to unlabelled CML-treated (blocked) cells [3]: 1.8 fold
